Test results reported in the supplement of paper PMC10307832.

Legend:
Test in all cases: relative viability (nuclei count vs DMSO), 5 days (fraction); higher = more cells survive
[1] = compound: CC[C@H](Nc1ncnc2[nH]cnc12)c1nc2cccc(F)c2c(=O)n1-c1ccccc1 [Idelalisib] + CC(=O)c1c(C)c2cnc(Nc3ccc(N4CCNCC4)cn3)nc2n(C2CCCC2)c1=O [Palbociclib] (partner 0.5 µM)
Method in brief: (§1)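 The day after seeding in 1536-well plates, lung cancer cell lines were treated by pin tool with a single drug, or with a fixed anchor-drug dose together with five library-drug doses (not always all listed) in √10 steps. After 5 days, a combined fix-and-stain solution (final 0.05% Triton X-100, 1% formaldehyde, 1 ug/ml Hoechst) was added. Nuclei counted on 4× images gave relative viability as treated counts over vehicle counts, reported as the median of duplicate plates.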

[2] = compound: CC[C@H](Nc1ncnc2[nH]cnc12)c1nc2cccc(F)c2c(=O)n1-c1ccccc1 [Idelalisib] + COc1cc2c(Oc3ccc(NC(=O)C4(C(=O)Nc5ccc(F)cc5)CC4)cc3F)ccnc2cc1OCCCN1CCOCC1 [Foretinib] (partner 0.25 µM)
Method in brief: as §1

[3] = compound: Nc1nc2[nH]cc(CCc3ccc(C(=O)N[C@@H](CCC(=O)O)C(=O)O)cc3)c2c(=O)[nH]1 [Pemetrexed] + NC(=O)Nc1cc(-c2cccc(F)c2)sc1C(=O)N[C@H]1CCCNC1 [AZD7762] (partner 0.2 µM)
Method in brief: as §1

[4] = compound: Nc1nc2[nH]cc(CCc3ccc(C(=O)N[C@@H](CCC(=O)O)C(=O)O)cc3)c2c(=O)[nH]1 [Pemetrexed] + C[C@@H](Oc1cc(-c2cnn(C3CCNCC3)c2)cnc1N)c1c(Cl)ccc(F)c1Cl [Crizotinib] (partner 1 µM)
Method in brief: as §1

Cell Line | relative viability ([1]; first compound 0.04 µM) | relative viability ([1]; first compound 0.1265 µM) | relative viability ([1]; first compound 0.4 µM) | relative viability ([1]; first compound 1.265 µM) | relative viability ([1]; first compound 4 µM) | relative viability ([2]; first compound 0.04 µM) | relative viability ([2]; first compound 0.1265 µM) | relative viability ([2]; first compound 0.4 µM) | relative viability ([2]; first compound 1.265 µM) | relative viability ([2]; first compound 4 µM) | relative viability ([3]; first compound 0.002 µM) | relative viability ([3]; first compound 0.006325 µM) | relative viability ([3]; first compound 0.02 µM) | relative viability ([3]; first compound 0.06325 µM) | relative viability ([3]; first compound 0.2 µM) | relative viability ([4]; first compound 0.002 µM) | relative viability ([4]; first compound 0.006325 µM) | relative viability ([4]; first compound 0.02 µM) | relative viability ([4]; first compound 0.06325 µM) | relative viability ([4]; first compound 0.2 µM)
HOP-62 | 0.441 | 0.468 | 0.411 | 0.468 | 0.328 | 1.15 | 1.05 | 1.15 | 1.15 | 1.1 | 0.485 | 0.534 | 0.45 | 0.762 | 0.483 | 0.836 | 0.779 | 0.499 | 0.791 | 0.933
LC-2-ad | 0.454 | 0.518 | 0.513 | 0.503 | 0.49 | 0.978 | 0.857 | 0.733 | 0.943 | 0.85 | 0.726 | 0.816 | 0.43 | 0.276 | 0.233 | 0.425 | 0.473 | 0.457 | 0.263 | 0.29
LCLC-97TM1 | 0.247 | 0.248 | 0.179 | 0.239 | 0.158 | 1.1 | 0.961 | 0.877 | 1.03 | 0.776 | 0.338 | 0.164 | 0.273 | 0.243 | 0.127 | 0.263 | 0.352 | 0.404 | 0.338 | 0.224
LCLC-103H | 0.515 | 0.421 | 0.472 | 0.472 | 0.451 | 0.727 | 0.728 | 0.65 | 0.829 | 0.582 | 0.642 | 0.774 | 0.792 | 0.775 | 0.695 | 0.94 | 1.01 | 1.07 | 1.08 | 1.07
LK-2 | 0.603 | 0.832 | – | 0.609 | 0.659 | 1.75 | 1.16 | – | 1.29 | 0.836 | 0.504 | 0.426 | 0.494 | 0.245 | 0.164 | – | 0.252 | 0.221 | 0.249 | 0.247
LOU-NH91 | 0.548 | 0.545 | 0.629 | 0.544 | 0.547 | 1.03 | 0.912 | 0.888 | 0.803 | 0.864 | 0.678 | 0.738 | 0.715 | 0.44 | 0.394 | 0.701 | 0.747 | 0.988 | 0.636 | 0.504
LU99A | 0.41 | 0.424 | 0.357 | 0.429 | 0.39 | 0.939 | 0.847 | 0.775 | 0.79 | 0.775 | 0.356 | 0.376 | 0.371 | 0.293 | 0.178 | 0.543 | 0.621 | 0.62 | 0.594 | 0.325
LXF-289 | 0.592 | 0.667 | 0.601 | 0.687 | 0.627 | 0.946 | 0.979 | 0.928 | 1.14 | 0.951 | 1.06 | 1.02 | 1.14 | 1.09 | 1.02 | 0.808 | 0.832 | 0.841 | 0.843 | 0.79
NCI-H23 | 0.51 | 0.467 | 0.441 | 0.501 | 0.521 | 1.2 | 1.1 | 0.766 | – | 0.859 | 0.253 | 0.231 | 0.232 | 0.235 | 0.245 | 0.507 | 0.467 | 0.589 | 0.438 | 0.425
NCI-H322M | 0.495 | 0.488 | 0.424 | 0.435 | 0.508 | 1.22 | 1.1 | 0.792 | 0.841 | 0.908 | 0.709 | 0.634 | 0.565 | 0.637 | 0.557 | 0.886 | 0.884 | 1.05 | 0.912 | 0.778
NCI-H358 | 0.178 | 0.138 | 0.137 | 0.153 | 0.153 | 0.782 | 0.701 | 0.554 | 0.652 | 0.734 | 0.55 | 0.321 | 0.539 | 0.338 | 0.266 | 0.555 | 0.524 | 0.558 | 0.287 | 0.179
NCI-H441 | 0.231 | 0.155 | – | 0.23 | 0.182 | 1.15 | 1.09 | 1.05 | 1.11 | 1.2 | 1.12 | 1.1 | 1.11 | 1.03 | 0.291 | 0.608 | 0.777 | 0.865 | 0.567 | 0.396
NCI-H460 | 0.145 | 0.286 | 0.175 | 0.121 | 0.103 | 1.03 | 1.06 | 0.962 | 1 | 0.896 | 0.589 | 0.707 | 0.657 | 0.194 | 0.0726 | 0.842 | 0.794 | 1.02 | 0.197 | 0.0567
NCI-H1395 | 0.636 | 0.615 | 0.595 | 0.564 | 0.453 | 1.02 | 0.959 | 0.976 | 0.963 | 0.707 | 0.387 | 0.373 | 0.421 | 0.415 | 0.38 | – | – | – | – | –
NCI-H1792 | 0.632 | 0.668 | 0.557 | 0.668 | 0.55 | – | – | – | – | – | 0.608 | 0.633 | 0.697 | 0.676 | 0.633 | 0.993 | 0.972 | 0.987 | 0.974 | 0.937
NCI-H1793 | 0.331 | 0.27 | – | 0.298 | 0.26 | 0.764 | 0.54 | 0.381 | 0.685 | 0.409 | 0.468 | 0.404 | 0.966 | 0.446 | 0.509 | – | – | – | – | –
NCI-H2342 | 0.485 | 0.495 | 0.484 | 0.519 | 0.473 | 1.02 | 1.11 | 0.886 | 0.896 | 0.729 | 0.354 | 0.492 | 0.392 | 0.524 | 0.443 | – | – | – | – | –
SW 900 | 0.493 | 0.543 | 0.397 | 0.531 | 0.407 | 0.796 | 1.14 | 0.869 | 0.766 | 0.563 | 0.692 | 0.599 | 0.609 | 0.497 | 0.376 | – | – | – | – | –
